Columns and labels:
[1] = system: wildtype AmGSTF1; type: biochemical, Alopecurus myosuroides; conditions: 100 µM, 60 min at 20 °C, diluted 1:100, activity towards CDNB
[2] = system: AmGSTF1; test: Isothermal titration calorimetry; type: binding, Alopecurus myosuroides
Protocol: Coot and reciprocal space refinement using Refmac. Further experimental detail is summarised in
Molecular docking was performed using the GOLD package with CHEMPLP as the target fitness function
12. The structure of the AmGSTF1 in the tetragonal unit cell with both loops in their closed conformation
was used as a starting model for docking. The ligand (GS-NBF) was removed from the binding site. The
search space was defined by the position of the ligand in the cavity with a margin of 10 and 15 Å,
respectively. The ligands were built with Avogadro [XX]. In each case, the starting geometry minimized
using the MMFF94 forcefield [xx]. Each ligand was docked with 30 independent genetic algorithm using
the diverse solution settings in order to explore a maximum parameter space.
Isothermal Titration Calorimetry
AmGSTF1 was dialysed into HEPES buffer (pH 7.6) overnight at 3 °C and the concentration adjusted to
10 µM in a volume of 3 mL. The activity of the enzyme was calculated prior to use according to the
standard CDNB biochemical assay. A solution of the desired ligand (≥ 10 x protein concentration, 200
µL) was prepared in the same HEPES buffer as above. All samples were degassed for 5 minutes prior to
use using a thermovac at 24 °C. AmGSTF1 was incubated in the cell and the ligand in the syringe, […]
experiment run to completion or until no more titrant was available. The data obtained was analysed […]

[3] = system: AmGSTF1; test: CDNB assay: inhibition of AmGSTF1-catalysed glutathionylation of CDNB; type: biochemical, Alopecurus myosuroides; conditions: for CDNB Assay % Inhibition: three replicate measurements
[4] = system: AmGSTF1; test: Ligand fishing with strep-tagged AmGSTF1 immobilised on StrepTactin column; type: binding, Alopecurus myosuroides; conditions: ligand cocktail, each at 100 µM
[5] = system: MHR in black-grass plants; test: Preliminary spray trial with pinoxaden; type: in vivo, Alopecurus myosuroides; conditions: black-grass plants exposed to the herbicide pinoxaden
[6] = system: wheat; test: Preliminary spray trial, companion crop phytotoxicity; type: in vivo
[7] = system: AmGSTF1; test: Thermal shift assay; type: binding, Alopecurus myosuroides; conditions: difference in melting temperature compared to no ligand
[8] = system: HS black-grass (Rothamsted); test: Petri-dish seedling assay with pendimethalin; type: in vivo, Alopecurus myosuroides; conditions: 70 uM compound 55 for 24 h prior to 5 ppm pendimethalin
[9] = system: MHR black-grass (Peldon); test: Petri-dish seedling assay with pendimethalin; type: in vivo, Alopecurus myosuroides
[10] = system: MHR black-grass plants; test: Spray assay on three-leaf stage plants with pendimethalin; type: in vivo, Alopecurus myosuroides; conditions: three-leaf stage (BBCH 13); 70 μM compound 55, 24 h prior to spray with 35 μM pendimethalin
[11] = system: AtGSTF8; test: CDNB assay on AtGSTF8 (selectivity); type: biochemical, A. thaliana
Protocol: Having established flavonoids as AmGSTF1 ligands with the potential to reverse the MHR phenotype, the scope for optimising their activity, selectivity, and physicochemical profile using synthetic modifications was explored. Using 5,7-dihydroxyflavone (chrysin, 2) as precursor (Fig. 3a), the synthesis of flavonoid derivatives with simple A-ring modifications were undertaken. Each compound was then assessed for its binding to the protein target using both thermal shift assays and by the inhibition of enzyme activity toward CDNB (Table S4 ^‡). The 2-methylchromen-4-one derivative 12 (Table S4; ^‡ entry 11) was synthesised to assess the effect of replacement of the aryl ring at the 2-position (B-ring) with a smaller group. […] Alternative 2-substituents, including amides 16, cyclic amines 17 and (hetero)arenes 18, each introduced from the corresponding carboxylic acid 13, thioether 14 and chloride 15 using standard acylation, SNAr and Pd-catalysed cross-coupling reactions (Fig. 3b). […] However, for these compounds, the assessment of activity was difficult due to their low solubility in aqueous solutions. […] To confirm if the binding observed with these synthetic analogues was specific to AmGSTF1, as determined by the inhibition of CDNB activity, the effect of this flavonoid series on an alternative well described phi class GST from A. thaliana (AtGSTF8), was investigated. […]

[12] = Aqueous solubility (qualitative); type: physicochemical

NC(CCC(=O)NC(CSc1ccc([N+](=O)[O-])c2nonc12)C(=O)NCC(=O)O)C(=O)O (stereo not drawn) [NBD-SG]
Inhibition vs. DMSO control [1]: 43% | Mean specific activity ([1]; mean ± SD, n = 3): 11.2 ± 1.1 nmol s-1 mg-1 protein | Binding to AmGSTF1 by ITC [2]: binding to AmGSTF1 confirmed

O=c1cc(-c2ccc(O)cc2)oc2cc(O)cc(O)c12 [compound 1, apigenin]
CDNB Assay % Inhibition ([3]; 10 µM compound): 71% | CDNB Assay % Inhibition ([3]; 100 µM compound): 87% | Binding/retention by immobilised AmGSTF1 [4]: selectively retained and bound | Synergistic effect counteracting MHR [5]: clear synergistic effect | Phytotoxic effect in companion crop [6]: no adverse phytotoxic effect

CCCCCCCCCCC(Oc1cc(O)cc2oc(-c3ccc(O)c(O)c3)c(O)c(=O)c12)C(=O)O (stereo not drawn) [compound 55]
Inhibitory activity toward AmGSTF1 in the CDNB assay (in words) [3]: excellent inhibitory activity | CDNB Assay % Inhibition ([3]; 1 µM compound): 70% | CDNB Assay % Inhibition ([3]; 10 µM compound): 96% | CDNB Assay % Inhibition ([3]; 100 µM compound): 100% | Thermal Shift Assay ∆Tm ([7]; 1 µM): 0.20 | Thermal Shift Assay ∆Tm ([7]; 10 µM): 2.17 | Thermal Shift Assay ∆Tm ([7]; 100 µM): 1.10 | Percentage of normal shoot 14 d after treatment [8]: 50% | Resistance to pendimethalin in MHR seedlings ([9]; 70 μM compound 55, 24 h prior to 5 ppm pendimethalin, compared to untreated seedlings): reduced | Percentage of normal shoot 14 d after treatment ([9]; Peldon-MHR, 70 uM compound 55 for 24 h prior to 5 ppm pendimethalin): 66% | Pendimethalin resistance in established MHR plants [10]: reversed pendimethalin resistance | Selectivity toward AmGSTF1 as compared to AtGSTF8 [11]: good selectivity | Solubility in aqueous solutions (in words) [12]: sufficient soluble

Reference: publication PMC8564858, “Flavonoid-based inhibitors of the Phi-class glutathione transferase from black-grass to combat multiple herbicide resistance” (Organic & Biomolecular Chemistry, 2021)
